Data published in paper PMC5218480 (PLoS ONE, 2017).

System: MV-4-11 cells
Experiment: Gene expression microarray analysis (Affymetrix PrimeView) and GSEA
Type: cell-based, human
Design: RFU PODN (11730768_x_at) / Fold change /veh PODN (11730768_x_at) / RFU LINC00158 (11744669_a_at) / Fold change /veh LINC00158 (11744669_a_at) / RFU DUSP10 (11751237_a_at) / Fold change /veh DUSP10 (11751237_a_at) / RFU ID3 (11757404_x_at) / Fold change /veh ID3 (11757404_x_at) / RFU PLEKHG5 (11737974_s_at) / Fold change /veh PLEKHG5 (11737974_s_at) / RFU LRRC4B (11730491_at) / Fold change /veh LRRC4B (11730491_at) / RFU GIMAP4 (11747438_a_at) / Fold change /veh GIMAP4 (11747438_a_at) / RFU KRT8 (11758183_x_at) / Fold change /veh KRT8 (11758183_x_at) / RFU CNN1 (11734310_a_at) / Fold change /veh CNN1 (11734310_a_at) / RFU VPS37D (11726825_at) / Fold change /veh VPS37D (11726825_at) / RFU C10orf10 (11716522_x_at) / Fold change /veh C10orf10 (11716522_x_at) / RFU KIR2DL2 /// KIR2DL4 /// KIR2DL5A /// KIR2DL5B /// KIR2DS1 /// KIR2DS2 /// KIR2DS3 /// KIR2DS4 /// KIR3DL3 /// KIR3DL3 /// KIR3DS1 (11738374_at) / Fold change /veh KIR2DL2 /// KIR2DL4 /// KIR2DL5A /// KIR2DL5B /// KIR2DS1 /// KIR2DS2 /// KIR2DS3 /// KIR2DS4 /// KIR3DL3 /// KIR3DL3 /// KIR3DS1 (11738374_at) / RFU C1QL1 (11718748_at) / Fold change /veh C1QL1 (11718748_at) / RFU TMPRSS4 (11747572_a_at) / Fold change /veh TMPRSS4 (11747572_a_at) / RFU HAMP (11756126_x_at) / Fold change /veh HAMP (11756126_x_at) / RFU RNFT2 (11725882_a_at) / Fold change /veh RNFT2 (11725882_a_at) / RFU NR4A2 (11747474_a_at) / Fold change /veh NR4A2 (11747474_a_at) / RFU ABCC12 (11746883_a_at) / Fold change /veh ABCC12 (11746883_a_at) / RFU TMEM136 (11760407_x_at) / Fold change /veh TMEM136 (11760407_x_at) / RFU CLDN22 /// WWC2 (11732394_at) / Fold change /veh CLDN22 /// WWC2 (11732394_at) / RFU HLA-DPB1 (11760878_x_at) / Fold change /veh HLA-DPB1 (11760878_x_at) / RFU SPINT1 (11716480_a_at) / Fold change /veh SPINT1 (11716480_a_at) / RFU GAP43 (11754022_s_at) / Fold change /veh GAP43 (11754022_s_at) / RFU A4GNT (11735810_at) / Fold change /veh A4GNT (11735810_at) / RFU PRB3 (11715151_x_at) / Fold change /veh PRB3 (11715151_x_at) / RFU TUBB4B (11761932_at) / Fold change /veh TUBB4B (11761932_at) / RFU CAPN14 (11732068_a_at) / Fold change /veh CAPN14 (11732068_a_at) / RFU TMCC2 (11721928_a_at) / Fold change /veh TMCC2 (11721928_a_at) / RFU IRGQ (11745062_a_at) / Fold change /veh IRGQ (11745062_a_at) / RFU FAM174B (11720279_a_at) / Fold change /veh FAM174B (11720279_a_at) / RFU TMPRSS4 (11748680_a_at) / Fold change /veh TMPRSS4 (11748680_a_at) / RFU FAM212B (11763350_a_at) / Fold change /veh FAM212B (11763350_a_at) / RFU PLEKHG5 (11743358_a_at) / Fold change /veh PLEKHG5 (11743358_a_at) / RFU ZSCAN30 (11745921_a_at) / Fold change /veh ZSCAN30 (11745921_a_at) / RFU CMKLR1 (11741424_a_at) / Fold change /veh CMKLR1 (11741424_a_at) / RFU LOC101060620 /// MAPK8IP1 (11723275_at) / Fold change /veh LOC101060620 /// MAPK8IP1 (11723275_at) / RFU SPTSSB (11747773_x_at) / Fold change /veh SPTSSB (11747773_x_at) / RFU PRSS12 (11739890_at) / Fold change /veh PRSS12 (11739890_at) / RFU BIN1 (11741810_x_at) / Fold change /veh BIN1 (11741810_x_at) / RFU WNT11 (11732464_a_at) / Fold change /veh WNT11 (11732464_a_at) / RFU C10orf10 (11716521_a_at) / Fold change /veh C10orf10 (11716521_a_at) / RFU C5orf56 (11738089_at) / Fold change /veh C5orf56 (11738089_at) / RFU CYB561 (11721691_x_at) / Fold change /veh CYB561 (11721691_x_at) / RFU ANKRD19P (11752326_a_at) / Fold change /veh ANKRD19P (11752326_a_at) / RFU OR2T12 /// OR2T33 /// OR2T8 (11738714_s_at) / Fold change /veh OR2T12 /// OR2T33 /// OR2T8 (11738714_s_at) / RFU VCAN (11748164_a_at) / Fold change /veh VCAN (11748164_a_at) / RFU JSRP1 (11732532_at) / Fold change /veh JSRP1 (11732532_at) / RFU KRTAP10-11 (11738290_x_at) / Fold change /veh KRTAP10-11 (11738290_x_at) / RFU MYO3A (11730013_a_at) / Fold change /veh MYO3A (11730013_a_at) / RFU EBF3 (11725865_a_at) / Fold change /veh EBF3 (11725865_a_at) / RFU CAMK2N1 (11719241_x_at) / Fold change /veh CAMK2N1 (11719241_x_at) / RFU C5orf56 (11738088_a_at) / Fold change /veh C5orf56 (11738088_a_at) / RFU OLFML3 (11715873_a_at) / Fold change /veh OLFML3 (11715873_a_at) / RFU LOC100653217 /// NTM (11731650_a_at) / Fold change /veh LOC100653217 /// NTM (11731650_a_at) / RFU MAPK11 (11762145_a_at) / Fold change /veh MAPK11 (11762145_a_at) / RFU FIZ1 (11724087_x_at) / Fold change /veh FIZ1 (11724087_x_at) / RFU OASL (11726364_x_at) / Fold change /veh OASL (11726364_x_at) / RFU SOX15 (11748057_x_at) / Fold change /veh SOX15 (11748057_x_at) / RFU CD79A (11719716_a_at) / Fold change /veh CD79A (11719716_a_at) / RFU HIST1H1D (11736915_at) / Fold change /veh HIST1H1D (11736915_at) / RFU CASKIN2 (11723855_a_at) / Fold change /veh CASKIN2 (11723855_a_at) / RFU LOC730098 (11760151_x_at) / Fold change /veh LOC730098 (11760151_x_at) / RFU OR4N2 (11742367_at) / Fold change /veh OR4N2 (11742367_at) / RFU PRRT2 (11749266_a_at) / Fold change /veh PRRT2 (11749266_a_at) / RFU SNX32 (11753110_a_at) / Fold change /veh SNX32 (11753110_a_at) / RFU CDHR5 (11726645_a_at) / Fold change /veh CDHR5 (11726645_a_at) / RFU RCAN1 (11760418_a_at) / Fold change /veh RCAN1 (11760418_a_at) / RFU FAM167A (11723789_a_at) / Fold change /veh FAM167A (11723789_a_at) / RFU FAM26E (11764081_at) / Fold change /veh FAM26E (11764081_at) / RFU ISYNA1 (11749810_s_at) / Fold change /veh ISYNA1 (11749810_s_at) / RFU ACY1 (11761880_at) / Fold change /veh ACY1 (11761880_at) / RFU 11764098_at / Fold change /veh 11764098_at / RFU SAMD14 (11745864_x_at) / Fold change /veh SAMD14 (11745864_x_at) / RFU NPB (11741838_a_at) / Fold change /veh NPB (11741838_a_at) / RFU TMPRSS6 (11731388_a_at) / Fold change /veh TMPRSS6 (11731388_a_at) / RFU KRTAP10-2 (11738614_at) / Fold change /veh KRTAP10-2 (11738614_at) / RFU ARHGAP8 /// PRR5-ARHGAP8 (11727945_x_at) / Fold change /veh ARHGAP8 /// PRR5-ARHGAP8 (11727945_x_at) / RFU KRTAP5-7 /// NADSYN1 (11734609_at) / Fold change /veh KRTAP5-7 /// NADSYN1 (11734609_at) / RFU RASL12 (11751679_a_at) / Fold change /veh RASL12 (11751679_a_at) / RFU CDKN2B (11736163_a_at) / Fold change /veh CDKN2B (11736163_a_at) / RFU PRF1 (11729649_at) / Fold change /veh PRF1 (11729649_at) / RFU, ZNF638 /// ZNF638-IT1 / Fold change vs veh, ZNF638 /// ZNF638-IT1 / RFU, PANK3 / Fold change vs veh, PANK3 / RFU, SH3YL1 / Fold change vs veh, SH3YL1 / RFU, ZEB2 / Fold change vs veh, ZEB2 / RFU, NRIP1 / Fold change vs veh, NRIP1 / RFU, PTTG1IP / Fold change vs veh, PTTG1IP / RFU, CAPN2 / Fold change vs veh, CAPN2 / RFU, MED14 / Fold change vs veh, MED14 / RFU, SNORA58 / Fold change vs veh, SNORA58 / RFU, C1orf63 / Fold change vs veh, C1orf63 / RFU, LRRFIP1 / Fold change vs veh, LRRFIP1 / RFU, NDUFAF7 / Fold change vs veh, NDUFAF7 / RFU, SLC12A2 / Fold change vs veh, SLC12A2 / RFU, IBTK / Fold change vs veh, IBTK / RFU, ESF1 / Fold change vs veh, ESF1 / Fold change vs veh, TMEM50B / RFU, TAOK1 / Fold change vs veh, TAOK1 / RFU, ACBD3 / Fold change vs veh, ACBD3 / RFU, TMA16 / Fold change vs veh, TMA16 / RFU, RWDD3 / Fold change vs veh, RWDD3 / RFU, BCAT1 / Fold change vs veh, BCAT1 / RFU, EDEM3 / Fold change vs veh, EDEM3 / RFU, TMEM33 / Fold change vs veh, TMEM33 / RFU, WDR75 / Fold change vs veh, WDR75 / RFU, AHCTF1 / Fold change vs veh, AHCTF1 / RFU, TFRC / Fold change vs veh, TFRC / RFU, ZDHHC17 / Fold change vs veh, ZDHHC17 / RFU, NOM1 / Fold change vs veh, NOM1 / RFU, ARL8B / Fold change vs veh, ARL8B / RFU, ZBTB11 / Fold change vs veh, ZBTB11 / RFU, TAMM41 / Fold change vs veh, TAMM41 / RFU, KIAA1704 /// LOC100996395 / Fold change vs veh, KIAA1704 /// LOC100996395 / RFU, ING1 / Fold change vs veh, ING1 / RFU, TRMT61B / Fold change vs veh, TRMT61B / RFU, FUBP3 / Fold change vs veh, FUBP3 / RFU, TP53 / Fold change vs veh, TP53 / RFU, TNKS2 / Fold change vs veh, TNKS2 / RFU, ZFP14 / Fold change vs veh, ZFP14 / RFU, ACTR2 / Fold change vs veh, ACTR2 / RFU, PPP3R1 / Fold change vs veh, PPP3R1 / RFU, PIK3R1 / Fold change vs veh, PIK3R1 / RFU, HNRNPA1 / Fold change vs veh, HNRNPA1 / RFU, RNF170 / Fold change vs veh, RNF170 / RFU, ZNF28 / Fold change vs veh, ZNF28 / RFU, RNGTT / Fold change vs veh, RNGTT / RFU, OGT / Fold change vs veh, OGT / RFU, BRD1 / Fold change vs veh, BRD1 / RFU, MARS / Fold change vs veh, MARS / RFU, ZNF655 / Fold change vs veh, ZNF655 / RFU, FAHD1 / Fold change vs veh, FAHD1 / RFU, BDP1 / Fold change vs veh, BDP1 / RFU, LRRCC1 / Fold change vs veh, LRRCC1 / RFU, ARID1A / Fold change vs veh, ARID1A / RFU, ZNF146 / Fold change vs veh, ZNF146 / RFU, ZNF330 / Fold change vs veh, ZNF330 / RFU, GPN3 / Fold change vs veh, GPN3 / RFU, C9orf123 / Fold change vs veh, C9orf123 / RFU, N4BP2L2 / Fold change vs veh, N4BP2L2 / RFU, ARFIP1 / Fold change vs veh, ARFIP1 / RFU, FAM179B / Fold change vs veh, FAM179B / RFU, BCL10 / Fold change vs veh, BCL10 / RFU, UHRF1BP1L / Fold change vs veh, UHRF1BP1L / RFU, BET1 / Fold change vs veh, BET1 / RFU, CNOT2 / Fold change vs veh, CNOT2 / RFU, ZNF268 / Fold change vs veh, ZNF268 / Fold change vs veh, ZNF507 / RFU, DGCR2 / Fold change vs veh, DGCR2 / RFU, WDSUB1 / Fold change vs veh, WDSUB1 / Fold change vs veh, HSP90B1 /// MIR3652 / RFU, ADSS / Fold change vs veh, ADSS / RFU, GK / Fold change vs veh, GK / RFU, ZNF148 / Fold change vs veh, ZNF148 / RFU, TAF9 / Fold change vs veh, TAF9 / RFU, SLC1A5 / Fold change vs veh, SLC1A5 / RFU, SLMO2 / Fold change vs veh, SLMO2 / RFU, ABCC4 / Fold change vs veh, ABCC4 / RFU, LOC101060439 /// RAP1B / Fold change vs veh, LOC101060439 /// RAP1B / RFU, RFX7 / Fold change vs veh, RFX7 / RFU, GTPBP10 / Fold change vs veh, GTPBP10 / RFU, CNEP1R1 / Fold change vs veh, CNEP1R1 / RFU, BIVM-ERCC5 /// ERCC5 / Fold change vs veh, BIVM-ERCC5 /// ERCC5 / RFU, ILF3 / Fold change vs veh, ILF3 / RFU 11762660_at / Fold change /veh 11762660_at / RFU VCAN (11757783_s_at) / Fold change /veh VCAN (11757783_s_at) / RFU DDX43 (11728927_at) / Fold change /veh DDX43 (11728927_at) / RFU KRT8 (11758188_x_at) / Fold change /veh KRT8 (11758188_x_at) / RFU NKD1 (11759106_at) / Fold change /veh NKD1 (11759106_at) / RFU SRD5A1 (11742802_a_at) / Fold change /veh SRD5A1 (11742802_a_at) / RFU TPSAB1 /// TPSB2 (11721975_s_at) / Fold change /veh TPSAB1 /// TPSB2 (11721975_s_at) / RFU GSTM3 (11746129_a_at) / Fold change /veh GSTM3 (11746129_a_at) / RFU IL23R (11737362_x_at) / Fold change /veh IL23R (11737362_x_at) / RFU TMEM51 (11727254_a_at) / Fold change /veh TMEM51 (11727254_a_at) / RFU PIWIL2 (11732686_x_at) / Fold change /veh PIWIL2 (11732686_x_at) / RFU ORM1 (11744905_x_at) / Fold change /veh ORM1 (11744905_x_at) / RFU CCDC152 (11743942_at) / Fold change /veh CCDC152 (11743942_at) / RFU ECM1 (11717891_a_at) / Fold change /veh ECM1 (11717891_a_at) / RFU IL23R (11748794_a_at) / Fold change /veh IL23R (11748794_a_at) / RFU TNFAIP8L3 (11732012_x_at) / Fold change /veh TNFAIP8L3 (11732012_x_at) / RFU MBOAT4 (11741988_at) / Fold change /veh MBOAT4 (11741988_at) / RFU 11764193_at / Fold change /veh 11764193_at / RFU TMEM53 (11763286_at) / Fold change /veh TMEM53 (11763286_at) / RFU MAGEB2 (11727129_at) / Fold change /veh MAGEB2 (11727129_at) / RFU TMEM200A (11744735_a_at) / Fold change /veh TMEM200A (11744735_a_at) / RFU CCDC152 (11751479_a_at) / Fold change /veh CCDC152 (11751479_a_at) / RFU FAM211A (11726209_a_at) / Fold change /veh FAM211A (11726209_a_at) / RFU RGS16 (11746705_a_at) / Fold change /veh RGS16 (11746705_a_at) / RFU VCAN (11755009_s_at) / Fold change /veh VCAN (11755009_s_at) / RFU RHOB (11743442_s_at) / Fold change /veh RHOB (11743442_s_at) / RFU RGS16 (11720943_a_at) / Fold change /veh RGS16 (11720943_a_at) / RFU RGS16 (11720944_at) / Fold change /veh RGS16 (11720944_at) / RFU, VPS4B / Fold change vs veh, VPS4B / RFU, CREB1 / Fold change vs veh, CREB1 / RFU, DNAJC13 / Fold change vs veh, DNAJC13 / RFU, GNAQ / Fold change vs veh, GNAQ / RFU, CDK5R1 / Fold change vs veh, CDK5R1 / RFU, ZRANB3 / Fold change vs veh, ZRANB3 / RFU, CUL4A / Fold change vs veh, CUL4A / RFU, CCNY / Fold change vs veh, CCNY / RFU, UFL1 / Fold change vs veh, UFL1 / RFU, COG3 / Fold change vs veh, COG3 / RFU, DIAPH2 / Fold change vs veh, DIAPH2 / RFU, SKA2 / Fold change vs veh, SKA2 / RFU, AFF3 / Fold change vs veh, AFF3 / RFU, LMF1 / Fold change vs veh, LMF1 / RFU, IPO11 / Fold change vs veh, IPO11 / RFU, DFFB / Fold change vs veh, DFFB / RFU, FOXP1 / Fold change vs veh, FOXP1 / RFU, CARD8 / Fold change vs veh, CARD8 / RFU, STRN3 / Fold change vs veh, STRN3 / RFU, ADK / Fold change vs veh, ADK / RFU, RASSF2 / Fold change vs veh, RASSF2 / RFU, WIPF1 / Fold change vs veh, WIPF1 / RFU, LARP1B / Fold change vs veh, LARP1B / RFU, RASA1 / Fold change vs veh, RASA1 / RFU, RB1 / Fold change vs veh, RB1 / RFU, PPFIA1 / Fold change vs veh, PPFIA1 / RFU, MAT2A / Fold change vs veh, MAT2A / RFU, CCT5 / Fold change vs veh, CCT5 / RFU, WDR92 / Fold change vs veh, WDR92 / RFU, CUX1 / Fold change vs veh, CUX1 / RFU, TTC7A / Fold change vs veh, TTC7A / RFU, TMEM135 / Fold change vs veh, TMEM135 / RFU, DEPTOR / Fold change vs veh, DEPTOR / RFU, CPM / Fold change vs veh, CPM / RFU, DNAJB6 / Fold change vs veh, DNAJB6 / RFU, CACNA2D3 / Fold change vs veh, CACNA2D3 / RFU, DTX4 / Fold change vs veh, DTX4 / RFU, TFCP2 / Fold change vs veh, TFCP2 / RFU, GMCL1 /// GMCL1P1 / Fold change vs veh, GMCL1 /// GMCL1P1 / RFU, AEBP2 / Fold change vs veh, AEBP2 / RFU, SNHG1 /// SNORD22 /// SNORD25 /// SNORD26 /// SNORD27 /// SNORD28 /// SNORD29 /// SNORD31 / Fold change vs veh, SNHG1 /// SNORD22 /// SNORD25 /// SNORD26 /// SNORD27 /// SNORD28 /// SNORD29 /// SNORD31 / Fold change (Aza/veh), C12orf56 (ProbeSet 11735607_a_at) / Fold change (ACY-1035/veh), C12orf56 (ProbeSet 11735607_a_at) / Fold change (Aza/veh), FGFR1OP (ProbeSet 11751329_s_at) / Fold change (ACY-1035/veh), FGFR1OP (ProbeSet 11751329_s_at) / Fold change (Aza/veh), VPS36 (ProbeSet 11739960_a_at) / Fold change (ACY-1035/veh), VPS36 (ProbeSet 11739960_a_at) / RFU SYPL1 (11715823_x_at) / Fold change /veh SYPL1 (11715823_x_at) / RFU IGFBP7 (11715501_s_at) / Fold change /veh IGFBP7 (11715501_s_at) / RFU REEP3 (11722064_at) / Fold change /veh REEP3 (11722064_at) / RFU IGLL1 (11728026_x_at) / Fold change /veh IGLL1 (11728026_x_at): dose or concentration left out as unconfirmed
Settings: ProbeSet 11721559_s_at; LIST B

Nc1ccc(-c2cccs2)cc1NC(=O)c1ccc2c(c1)cc(C1CC1)n2CCN1CCOCC1 [ACY-1035]
RFU, ZNF638 /// ZNF638-IT1: 322.16 RFU
